Laboratory results: PubChem BioAssay AID504473 (NMMLSC, 2011)
Activity calls are given as the source filed them.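 How the source made its calls: active means GFP ratio to DMSO above 1.5 or below 0.66; inactive means the rest.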

Columns and labels:
Assay in all cases: expression changes of rapamycin-responsive GFP fusion proteins, S. cerevisiae, GFP-tagged clone panel, flow cytometry (AID 504473);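 further: median GFP fluorescence of the cells measured by high-throughput flow cytometry; test concentration not given here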
YOR063W = conditions: S. cerevisiae GFP-tagged strains, 3 h
YER156C = conditions: S. cerevisiae GFP-tagged strains, 3 h
YDR070C = conditions: S. cerevisiae GFP-tagged strains, 3 h
YEL063C = conditions: S. cerevisiae GFP-tagged strains, 3 h
YLR287C-A = conditions: S. cerevisiae GFP-tagged strains, 3 h
YML034W = conditions: S. cerevisiae GFP-tagged strains, 3 h
YNL068C = conditions: S. cerevisiae GFP-tagged strains, 3 h
YML026C = conditions: S. cerevisiae GFP-tagged strains, 3 h
YER151C = conditions: S. cerevisiae GFP-tagged strains, 3 h
YAL061W = conditions: S. cerevisiae GFP-tagged strains, 3 h
YIL052C = conditions: S. cerevisiae GFP-tagged strains, 3 h
YCR002C = conditions: S. cerevisiae GFP-tagged strains, 3 h
YKR094C = conditions: S. cerevisiae GFP-tagged strains, 3 h
YHR141C = conditions: S. cerevisiae GFP-tagged strains, 3 h
YHR087W = conditions: S. cerevisiae GFP-tagged strains, 3 h
YOR375C = conditions: S. cerevisiae GFP-tagged strains, 3 h
YPL111W = conditions: S. cerevisiae GFP-tagged strains, 3 h
YKL086W = conditions: S. cerevisiae GFP-tagged strains, 3 h
YPL150W = conditions: S. cerevisiae GFP-tagged strains, 3 h
YAL060W = conditions: S. cerevisiae GFP-tagged strains, 3 h
YBR139W = conditions: S. cerevisiae GFP-tagged strains, 3 h
YKL119C = conditions: S. cerevisiae GFP-tagged strains, 3 h
YER117W = conditions: S. cerevisiae GFP-tagged strains, 3 h
YDR399W = conditions: S. cerevisiae GFP-tagged strains, 3 h
YPR132W = conditions: S. cerevisiae GFP-tagged strains, 3 h
YJL056C = conditions: S. cerevisiae GFP-tagged strains, 3 h
YIL051C = conditions: S. cerevisiae GFP-tagged strains, 3 h
YGL147C = conditions: S. cerevisiae GFP-tagged strains, 3 h
YCR005C = conditions: S. cerevisiae GFP-tagged strains, 3 h
YGR034W = conditions: S. cerevisiae GFP-tagged strains, 3 h
YJR148W = conditions: S. cerevisiae GFP-tagged strains, 3 h
YDL205C = conditions: S. cerevisiae GFP-tagged strains, 3 h
YOR371C = conditions: S. cerevisiae GFP-tagged strains, 3 h
YGL135W = conditions: S. cerevisiae GFP-tagged strains, 3 h
YGR019W = conditions: S. cerevisiae GFP-tagged strains, 3 h
YPL220W = conditions: S. cerevisiae GFP-tagged strains, 3 h
YMR105C = conditions: S. cerevisiae GFP-tagged strains, 3 h
YLR142W = conditions: S. cerevisiae GFP-tagged strains, 3 h
YPR145W = conditions: S. cerevisiae GFP-tagged strains, 3 h
YHR144C = conditions: S. cerevisiae GFP-tagged strains, 3 h
YGL036W = conditions: S. cerevisiae GFP-tagged strains, 3 h
YOR136W = conditions: S. cerevisiae GFP-tagged strains, 3 h
YJL144W = conditions: S. cerevisiae GFP-tagged strains, 3 h
YKR039W = conditions: S. cerevisiae GFP-tagged strains, 3 h
YLR237W = conditions: S. cerevisiae GFP-tagged strains, 3 h
YPL265W = conditions: S. cerevisiae GFP-tagged strains, 3 h
YLR058C = conditions: S. cerevisiae GFP-tagged strains, 3 h
YML128C = conditions: S. cerevisiae GFP-tagged strains, 3 h
YBR208C = conditions: S. cerevisiae GFP-tagged strains, 3 h
YIL066C = conditions: S. cerevisiae GFP-tagged strains, 3 h
YHL021C = conditions: S. cerevisiae GFP-tagged strains, 3 h
YNR001C = conditions: S. cerevisiae GFP-tagged strains, 3 h
YIL069C = conditions: S. cerevisiae GFP-tagged strains, 3 h
YBL087C = conditions: S. cerevisiae GFP-tagged strains, 3 h
[1] = target: General amino acid permease AGP1 (Saccharomyces cerevisiae S288c) (UniProt P25376); conditions: S. cerevisiae GFP-tagged strains, 3 h, YCL025C
YPR184W = conditions: S. cerevisiae GFP-tagged strains, 3 h
YPL131W = conditions: S. cerevisiae GFP-tagged strains, 3 h
YDL204W = conditions: S. cerevisiae GFP-tagged strains, 3 h
YNL015W = conditions: S. cerevisiae GFP-tagged strains, 3 h
YEL071W = conditions: S. cerevisiae GFP-tagged strains, 3 h
YKR093W = conditions: S. cerevisiae GFP-tagged strains, 3 h
YGR088W = conditions: S. cerevisiae GFP-tagged strains, 3 h
YDR382W = conditions: S. cerevisiae GFP-tagged strains, 3 h
YGR121C = conditions: S. cerevisiae GFP-tagged strains, 3 h
YOR038C = conditions: S. cerevisiae GFP-tagged strains, 3 h
YNL112W = conditions: S. cerevisiae GFP-tagged strains, 3 h
YKL103C = conditions: S. cerevisiae GFP-tagged strains, 3 h
YBR248C = conditions: S. cerevisiae GFP-tagged strains, 3 h
YGL062W = conditions: S. cerevisiae GFP-tagged strains, 3 h
YNL214W = conditions: S. cerevisiae GFP-tagged strains, 3 h
YHR018C = conditions: S. cerevisiae GFP-tagged strains, 3 h
YDL130W = conditions: S. cerevisiae GFP-tagged strains, 3 h
YOR173W = conditions: S. cerevisiae GFP-tagged strains, 3 h
YOL052C-A = conditions: S. cerevisiae GFP-tagged strains, 3 h
YLR109W = conditions: S. cerevisiae GFP-tagged strains, 3 h
YMR251W-A = conditions: S. cerevisiae GFP-tagged strains, 3 h
YNL142W = conditions: S. cerevisiae GFP-tagged strains, 3 h
YBR072W = conditions: S. cerevisiae GFP-tagged strains, 3 h
YLL026W = conditions: S. cerevisiae GFP-tagged strains, 3 h
YOR182C = conditions: S. cerevisiae GFP-tagged strains, 3 h
YER081W = conditions: S. cerevisiae GFP-tagged strains, 3 h
YIL043C = conditions: S. cerevisiae GFP-tagged strains, 3 h
YLR185W = conditions: S. cerevisiae GFP-tagged strains, 3 h
YDR453C = conditions: S. cerevisiae GFP-tagged strains, 3 h
YEL060C = conditions: S. cerevisiae GFP-tagged strains, 3 h
YML004C = conditions: S. cerevisiae GFP-tagged strains, 3 h
YMR307W = conditions: S. cerevisiae GFP-tagged strains, 3 h
YLL039C = conditions: S. cerevisiae GFP-tagged strains, 3 h
YML063W = conditions: S. cerevisiae GFP-tagged strains, 3 h
YCL064C = conditions: S. cerevisiae GFP-tagged strains, 3 h
YFR053C = conditions: S. cerevisiae GFP-tagged strains, 3 h
YEL007W = conditions: S. cerevisiae GFP-tagged strains, 3 h
YHR203C = conditions: S. cerevisiae GFP-tagged strains, 3 h
YLR367W = conditions: S. cerevisiae GFP-tagged strains, 3 h
YMR120C = conditions: S. cerevisiae GFP-tagged strains, 3 h
YFR031C-A = conditions: S. cerevisiae GFP-tagged strains, 3 h

Measured: GFP ratio to DMSO

General amino acid permease AGP1 (Saccharomyces cerevisiae S288c), sequence (P25376 whole entry, looked up): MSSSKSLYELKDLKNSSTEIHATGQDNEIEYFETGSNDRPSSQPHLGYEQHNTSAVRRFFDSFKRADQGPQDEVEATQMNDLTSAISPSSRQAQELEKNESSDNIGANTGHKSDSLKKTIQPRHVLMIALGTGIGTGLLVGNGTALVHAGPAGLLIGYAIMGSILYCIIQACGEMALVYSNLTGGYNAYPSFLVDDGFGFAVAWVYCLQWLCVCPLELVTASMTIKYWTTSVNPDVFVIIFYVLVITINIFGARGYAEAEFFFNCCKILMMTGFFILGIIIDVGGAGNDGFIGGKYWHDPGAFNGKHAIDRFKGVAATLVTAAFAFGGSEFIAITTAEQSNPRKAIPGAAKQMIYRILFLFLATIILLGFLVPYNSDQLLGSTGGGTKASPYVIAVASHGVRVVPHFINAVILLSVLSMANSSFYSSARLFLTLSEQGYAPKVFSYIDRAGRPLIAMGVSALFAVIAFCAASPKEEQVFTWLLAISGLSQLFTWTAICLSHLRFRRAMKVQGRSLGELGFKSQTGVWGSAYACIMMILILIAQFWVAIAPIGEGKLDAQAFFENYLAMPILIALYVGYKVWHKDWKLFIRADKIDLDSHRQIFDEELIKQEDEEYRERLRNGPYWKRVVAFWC

CNc1nc(N)c([N+](=O)[O-])c(Nc2cccc(Cl)c2)n1
inactive: YOR063W 1.1 | YER156C 1.01 | YDR070C 1.14 | YEL063C 1.09 | YLR287C-A 1.04 | YML034W 0.842 | YNL068C 0.946 | YML026C 0.93 | YER151C 0.926 | YAL061W 0.887 | YIL052C 0.864 | YCR002C 0.916 | YKR094C 1.06 | YHR141C 1.04 | YHR087W 0.926 | YOR375C 1.17 | YPL111W 1.25 | YKL086W 0.896 | YPL150W 0.863 | YAL060W 0.91 | YBR139W 0.935 | YKL119C 0.951 | YER117W 0.883 | YDR399W 0.977 | YPR132W 1.13 | YJL056C 0.808 | YIL051C 0.981 | YGL147C 0.988 | YGR034W 1.01 | YDL205C 0.943 | YOR371C 0.826 | YGL135W 1.07 | YGR019W 1.02 | YPL220W 1.07 | YMR105C 1.17 | YLR142W 0.835 | YPR145W 1.32 | YHR144C 0.837 | YGL036W 0.781 | YOR136W 1.19 | YJL144W 0.983 | YKR039W 1.35 | YLR237W 0.77 | YLR058C 0.859 | YML128C 0.923 | YBR208C 1.16 | YIL066C 0.868 | YHL021C 1.11 | YNR001C 1.17 | YIL069C 1.1 | YBL087C 0.955 | [1] 0.961 | YPR184W 0.958 | YPL131W 1.09 | YDL204W 0.851 | YNL015W 0.947 | YGR088W 1.07 | YDR382W 1.1 | YGR121C 1.02 | YOR038C 0.974 | YNL112W 1.07 | YKL103C 1.21 | YBR248C 1.01 | YNL214W 0.938 | YHR018C 0.948 | YDL130W 1.06 | YOR173W 0.891 | YOL052C-A 1.17 | YLR109W 1.3 | YMR251W-A 1.01 | YNL142W 1.32 | YBR072W 0.849 | YLL026W 1.07 | YOR182C 1.02 | YER081W 1.21 | YIL043C 1 | YLR185W 1.04 | YDR453C 1.02 | YEL060C 0.826 | YML004C 0.875 | YMR307W 0.996 | YLL039C 0.725 | YML063W 1.04 | YCL064C 0.902 | YFR053C 0.888 | YEL007W 0.89 | YHR203C 1.04 | YLR367W 1.01 | YFR031C-A 1.02
active: YCR005C 2.27 | YJR148W 1.71 | YPL265W 1.62 | YEL071W 2.01 | YKR093W 1.61 | YGL062W 1.65 | YMR120C 0.553
